Results as given in patent publication US20150105252A1, “SUBSTITUTED PYRAZOLES AS HERBICIDES” (E I DU PONT DE NEMOURS AND COMPANY, priority 2013, published 2015).

Tests used:
[1] = tested on: quackgrass; experiment: Test E preemergence; format: in vivo, Elytrigia repens; settings: 21 days, scale 0 to 100
Source text: (§1) Seeds of plant species selected from bermudagrass (Cynodon dactylon), Surinam grass (Brachiaria decumbens), crabgrass, large (large crabgrass, Digitaria sanguinalis), crabgrass, naked (naked crabgrass, Digitaria nuda), foxtail, green (green foxtail, Setaria viridis), johnsongrass (Sorghum halepense), kochia (Kochia scoparia), morningglory (pitted morningglory, Ipomoea lacunosa), nutsedge, purple (purple nutsedge, Cyperus rotundus), ragweed (common ragweed, Ambrosia elation), mustard, black (black mustard, Brassica nigra), guineagrass (Panicum maximum), dallisgrass (Paspalum dilatatum), barnyardgrass (Echinochloa crus-galli), sandbur (southern sandbur, Cenchrus echinatus), sowthistle (common sowthistle, Sonchus oleraceous), ryegrass, Italian (Italian ryegrass, Lolium multiflorum), signalgrass (broadleaf signalgrass, Brachiaria platyphylla), dayflower, VA (Virginia (VA) dayflower, Commelina virginica), bluegrass (annual bluegrass, Poa annua), quackgrass (Elytrigia repens), mallow (common mallow, Malva sylvestris), buckwheat, wild (wild buckwheat, Polygonum convolvulus), leafy spurge (Euphorbia esula), common chickweed (Stellaria media), wild poinsettia (Euphorbia heterophylla), pigweed, palmer (palmer pigweed, Amaranthus palmeri), and pigweed (redroot pigweed, Amaranthus retroflexus) were planted into a blend of loam soil and sand and treated preemergence with test chemicals formulated in a non-phytotoxic solvent mixture which included a surfactant.
(§2) Treated plants and controls were maintained in a greenhouse for 21 days, after which time all species were compared to controls and visually evaluated. Plant response ratings, summarized in Table E, are based on a scale of 0 to 100 where 0 is no effect and 100 is complete control. A dash (-) response means no test result.

[2] = tested on: foxtail, green; experiment: Test E preemergence; format: in vivo, Setaria viridis; settings: 21 days, scale 0 to 100
Source text: as §1, §2

[3] = tested on: bermudagrass; experiment: Test E preemergence; format: in vivo, Cynodon dactylon; settings: 21 days, scale 0 to 100
Source text: as §1, §2

[4] = tested on: wild poinsettia; experiment: Test F postemergence; format: in vivo, Euphorbia heterophylla; settings: scale 0 to 100
Source text: Seeds of plant species selected from corn (Zea mays), soybean (Glycine max), velvetleaf (Abutilon theophrasti), lambsquarters (Chenopodium album), wild poinsettia (Euphorbia heterophylla), pigweed, palmer (palmer pigweed, Amaranthus palmeri), common waterhemp (Amaranthus rudis), surinam grass (Brachiaria decumbens), large crabgrass (Digitaria sanguinalis), crabgrass, Brazil (Brazilian crabgrass, Digitaria horizontalis), fall panicum (Panicum dichotomiflorum), giant foxtail (Setaria faberii), green foxtail (Setaria viridis), goosegrass (Eleusine indica), johnsongrass (Sorghum halepense), common ragweed (Ambrosia elation), barnyardgrass (Echinochloa crus-galli), southern sandbur (Cenchrus echinatus), arrowleaf sida (Sida rhombifolia), Italian ryegrass (Lolium multiflorum), dayflower, VA (Virginia (VA) dayflower, Commelina virginica), field bindweed (Convolvulus arvensis), cocklebur (common cocklebur, Xanthium strumarium), morningglory (Ipomoea coccinea), nightshade (eastern black nightshade, Solanum ptycanthum), kochia (Kochia scoparia), yellow nutsedge (Cyperus esculentus), and hairy beggarticks (Bidens pilosa), were planted into a silt loam soil and treated preemergence with test chemicals formulated in a non-phytotoxic solvent mixture which included a surfactant.
At the same time, plants from these crop and weed species and also horseweed (Canada horseweed, Conyza canadensis), smartweed (ladysthumb smartweed, Polygonum persicaria), waterhemp_RES1, (ALS & Triazine resistant common waterhemp, Amaranthus rudis), and waterhemp_RES2, (ALS & HPPD resistant common waterhemp, Amaranthus rudis) were treated with postemergence applications of test chemicals formulated in the same manner. Plants ranged in height from 2 to 18 cm for postemergence treatments (1- to 4-leaf stage). Treated plants and controls were maintained in a greenhouse for 14 to 21 days, after which time all species were compared to controls and visually evaluated. Plant response ratings, summarized in Table F, are based on a scale of 0 to 100 where 0 is no effect and 100 is complete control. A dash (-) response means no test result.

[5] = tested on: ryegrass, Italian; experiment: Test E preemergence; format: in vivo, Lolium multiflorum; settings: 21 days, scale 0 to 100
Source text: as §1, §2

[6] = tested on: kochia; experiment: Test A postemergence; format: in vivo, Kochia scoparia
Method in brief: (§3)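 Visual injury ratings, 0 = no effect to 100 = complete control, taken about 10 days after treatment against untreated controls. Test chemicals, in a non-phytotoxic surfactant-containing solvent, were sprayed onto soil preemergence or onto one- to two-leaf plants (2–10 cm) postemergence, in loam–sand soil under greenhouse conditions.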

[7] = tested on: blackgrass; experiment: Test A postemergence; format: in vivo, Alopecurus myosuroides
Method in brief: as §3

[8] = Postemergence, 500 g ai/ha, 0 to 100 scale (0 no effect, 100 complete control)
[9] = postemergence, 125 g ai/ha, about 10 days, visual rating on 0 to 100 scale (0 no effect, 100 complete control)

| Compound | Plant response rating, Quackgrass ([1]; 16 g ai/ha) | Plant response rating, Quackgrass ([1]; 31 g ai/ha) | Plant response rating, Quackgrass ([1]; 62 g ai/ha) | Plant response rating, Quackgrass ([1]; 125 g ai/ha) | Plant response rating, Quackgrass ([1]; 250 g ai/ha) | Plant response rating, Foxtail, Green ([2]; 16 g ai/ha) | Plant response rating, Foxtail, Green ([2]; 31 g ai/ha) | Plant response rating, Foxtail, Green ([2]; 62 g ai/ha) | Plant response rating, Foxtail, Green ([2]; 125 g ai/ha) | Plant response rating, Foxtail, Green ([2]; 250 g ai/ha) | Plant response rating, Bermudagrass ([3]; 16 g ai/ha) | Plant response rating, Bermudagrass ([3]; 31 g ai/ha) | Plant response rating, Bermudagrass ([3]; 62 g ai/ha) | Plant response rating, Bermudagrass ([3]; 125 g ai/ha) | Plant response rating, Bermudagrass ([3]; 250 g ai/ha) | Plant response rating, Wild Poinsettia ([4]; Postemergence, 31 g ai/ha) | Plant response rating, Wild Poinsettia ([4]; Postemergence, 125 g ai/ha) | Plant response rating, Ryegrass, Italian ([5]; 16 g ai/ha) | Plant response rating, Ryegrass, Italian ([5]; 31 g ai/ha) | Plant response rating, Ryegrass, Italian ([5]; 62 g ai/ha) | also measured |
| --- | --- | --- | --- | --- | --- | --- | --- | --- | --- | --- | --- | --- | --- | --- | --- | --- | --- | --- | --- | --- | --- |
| CCc1cc(C(=O)NCC(F)(F)F)nn1Cc1ccnc(C(F)(F)F)c1 [Compound 78, 5-ethyl-N-(2,2,2-trifluoroethyl)-1-[[(2-trifluoromethyl)-4-pyridinyl]methyl]-1H-pyrazole-3-carboxamide] | 60 | 95 | 100 | 100 | 100 | 50 | 100 | 100 | 100 | 100 | 70 | 85 | 100 | 100 | 100 | 25 | 70 | 10 | 50 | 90 | Plant response rating, Wild Poinsettia ([4]; Postemergence, 250 g ai/ha): 80; Plant response rating, Wild Poinsettia ([4]; postemergence, 62 g ai/ha): 50; Plant response rating, Wild Poinsettia ([4]; postemergence, 500 g ai/ha): 90; Plant response rating, Ryegrass, Italian ([5]; 125 g ai/ha): 100; Plant response rating, Ryegrass, Italian ([5]; 250 g ai/ha): 100 |
| CCc1cc(C(=O)NC(C)C)nn1Cc1ccnc(C(F)(F)F)c1 [Compound 103] | 95 | 98 | 100 | 100 | 100 | 100 | 100 | 100 | 100 | 100 | 80 | 98 | 100 | 98 | 100 | – | – | 50 | 98 | 100 | Plant response rating, Ryegrass, Italian ([5]; 125 g ai/ha): 100; Plant response rating, Ryegrass, Italian ([5]; 250 g ai/ha): 100 |
| CCOc1cc(C(=O)NCC(F)(F)F)nn1Cc1ccnc(C(F)(F)F)c1 [Compound 104] | 75 | 95 | 95 | 98 | 100 | 100 | 100 | 100 | 100 | 100 | 90 | 95 | 98 | 100 | 100 | 45 | 95 | 75 | 98 | 100 | Plant response rating, Wild Poinsettia ([4]; Postemergence, 250 g ai/ha): 90; Plant response rating, Wild Poinsettia ([4]; postemergence, 62 g ai/ha): 60; Plant response rating, Wild Poinsettia ([4]; postemergence, 500 g ai/ha): 100; Plant response rating, Ryegrass, Italian ([5]; 125 g ai/ha): 100; Plant response rating, Ryegrass, Italian ([5]; 250 g ai/ha): 100 |
| CCCc1cc(C(=O)NCC(F)(F)F)nn1Cc1ccnc(C(F)(F)F)c1 [Compound 105] | 65 | 90 | 98 | 100 | 100 | 95 | 98 | 100 | 100 | 100 | 70 | 90 | 98 | 98 | 100 | 40 | 70 | 65 | 85 | 100 | Plant response rating, Wild Poinsettia ([4]; Postemergence, 250 g ai/ha): 100; Plant response rating, Wild Poinsettia ([4]; postemergence, 62 g ai/ha): 50; Plant response rating, Wild Poinsettia ([4]; postemergence, 500 g ai/ha): 100; Plant response rating, Ryegrass, Italian ([5]; 125 g ai/ha): 100; Plant response rating, Ryegrass, Italian ([5]; 250 g ai/ha): 100 |
| CCONC(=O)c1cc(CC)n(Cc2cc(C(F)(F)F)no2)n1 [Compound 125] | – | – | – | – | – | – | – | – | – | – | – | – | – | – | – | – | – | – | – | – | Kochia plant response rating [6, 8]: 90; Kochia plant response rating [6, 9]: 60; Blackgrass plant response rating [7, 8]: 90; Blackgrass plant response rating [7, 9]: 30 |
| CCOc1cc(C(=O)NC2CC2)nn1Cc1ccnc(OC(F)F)c1 [Compound 133] | – | – | – | – | – | – | – | – | – | – | – | – | – | – | – | – | – | – | – | – | Kochia plant response rating [6, 8]: 100; Kochia plant response rating [6, 9]: 90; Blackgrass plant response rating [7, 8]: 100; Blackgrass plant response rating [7, 9]: 90 |
| CCOc1cc(C(=O)NC(C)C)nn1Cc1ccnc(C(F)(F)F)c1 [Compound 188] | – | – | – | – | – | – | – | – | – | – | – | – | – | – | – | 60 | 60 | – | – | – | Plant response rating, Wild Poinsettia ([4]; Postemergence, 250 g ai/ha): 80; Plant response rating, Wild Poinsettia ([4]; postemergence, 62 g ai/ha): 70; Plant response rating, Wild Poinsettia ([4]; postemergence, 500 g ai/ha): 85 |
| CCOc1cc(C(=O)NC2CC2)nn1Cc1ccnc(C(F)(F)F)c1 [Compound 189] | 35 | 75 | 100 | – | – | 100 | 100 | 100 | – | – | 65 | 85 | 98 | – | – | – | – | 20 | 50 | 100 | Plant response rating, Quackgrass ([1]; 4 g ai/ha): 0; Plant response rating, Quackgrass ([1]; 8 g ai/ha): 0; Plant response rating, Foxtail, Green ([2]; 4 g ai/ha): 0; Plant response rating, Foxtail, Green ([2]; 8 g ai/ha): 20; Plant response rating, Bermudagrass ([3]; 4 g ai/ha): 0; Plant response rating, Bermudagrass ([3]; 8 g ai/ha): 0; Plant response rating, Ryegrass, Italian ([5]; 4 g ai/ha): 0; Plant response rating, Ryegrass, Italian ([5]; 8 g ai/ha): 0 |
| CCc1cc(C(=O)NCC(F)(F)F)nn1Cc1cc(OC(F)F)nn1C [Compound 206] | – | – | – | – | – | – | – | – | – | – | – | – | – | – | – | – | – | – | – | – | Kochia plant response rating ([6]; Postemergence, 125 g ai/ha, 0 to 100 scale, 0 no effect, 100 complete control): 80; Kochia plant response rating [6, 8]: 90; Blackgrass plant response rating [7, 8]: 50; Blackgrass plant response rating [7, 9]: 0 |
